Source: patent US10787447B2, “Pharmaceutical compounds” (Heptares Therapeutics Limited, priority 2018, dated 2020)
pEC50: −log10 of the molar value.

What was measured:
Type in all cases: cell-based
[1] = biological target: T1, human muscarinic M1 receptor (Homo sapiens, UniProt P11229); test: Alphascreen Surefire phospho-ERK1/2 functional assay, M1; conditions: for % Emax cf. ACh, M1: CHO cells stably expressing human M1, Emax relative to ACh; for pEC50: pEC50 M1, CHO cells stably expressing human M1, phospho-ERK1/2
T1 sequence (P11229 1-460): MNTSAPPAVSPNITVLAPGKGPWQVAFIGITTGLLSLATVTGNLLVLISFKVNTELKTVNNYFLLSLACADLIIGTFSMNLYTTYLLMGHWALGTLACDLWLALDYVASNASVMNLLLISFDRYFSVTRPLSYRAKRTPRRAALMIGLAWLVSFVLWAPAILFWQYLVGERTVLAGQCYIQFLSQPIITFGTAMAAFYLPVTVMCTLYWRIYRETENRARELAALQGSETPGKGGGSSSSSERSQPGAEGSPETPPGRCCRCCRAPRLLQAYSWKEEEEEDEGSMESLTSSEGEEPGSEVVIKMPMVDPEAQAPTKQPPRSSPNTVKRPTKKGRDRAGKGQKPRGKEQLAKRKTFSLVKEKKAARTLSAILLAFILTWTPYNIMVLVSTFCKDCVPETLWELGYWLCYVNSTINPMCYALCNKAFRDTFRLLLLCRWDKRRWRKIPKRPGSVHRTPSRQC
How it was run: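 Stably transfected CHO cells, serum-starved overnight, then exposed to agonist for 5 min at 37 °C. Cells lysed and phospho-ERK1/2 measured by AlphaScreen SureFire.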

[2] = biological target: T2, human muscarinic M4 receptor (Homo sapiens, UniProt P08173); test: Alphascreen Surefire phospho-ERK1/2 functional assay, M4; conditions: for Emax: CHO, read-out: % Emax cf. ACh, M4, CHO cells stably expressing human M4; for Emax / % Emax cf. ACh, M4: Emax relative to ACh; for pEC50: pEC50 M4, CHO cells stably expressing human M4, phospho-ERK1/2; for % Emax cf. ACh, M4: CHO cells stably expressing human M4
T2 sequence (P08173 1-479): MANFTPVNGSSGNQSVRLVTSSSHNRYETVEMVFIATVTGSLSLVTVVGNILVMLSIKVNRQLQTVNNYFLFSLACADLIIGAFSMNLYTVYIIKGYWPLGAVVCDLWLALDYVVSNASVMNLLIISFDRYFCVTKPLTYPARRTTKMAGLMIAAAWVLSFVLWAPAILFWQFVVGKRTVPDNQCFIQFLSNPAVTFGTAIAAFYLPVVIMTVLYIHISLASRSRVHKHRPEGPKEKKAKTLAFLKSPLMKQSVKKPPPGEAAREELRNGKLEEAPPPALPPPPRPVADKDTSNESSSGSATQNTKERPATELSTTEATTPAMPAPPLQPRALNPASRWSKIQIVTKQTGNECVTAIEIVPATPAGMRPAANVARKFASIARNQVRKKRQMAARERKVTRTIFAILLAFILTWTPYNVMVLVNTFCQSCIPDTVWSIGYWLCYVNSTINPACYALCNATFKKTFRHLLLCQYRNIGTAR
How it was run: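 CHO cells stably expressing human M1, M2, M3 or M4 receptor, serum-starved overnight, then stimulated with agonist for 5 min at 37 °C. Cells lysed for 15 min and phospho-ERK1/2 detected in the lysate by AlphaScreen SureFire.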

[3] = biological target: T3, human muscarinic M2 receptor (Homo sapiens, UniProt P08172); test: Alphascreen Surefire phospho-ERK1/2 functional assay, M2; conditions: for % Emax cf. ACh, M2: CHO cells stably expressing human M2; for pEC50: pEC50 M2, CHO cells stably expressing human M2, phospho-ERK1/2
T3 sequence (P08172 1-466): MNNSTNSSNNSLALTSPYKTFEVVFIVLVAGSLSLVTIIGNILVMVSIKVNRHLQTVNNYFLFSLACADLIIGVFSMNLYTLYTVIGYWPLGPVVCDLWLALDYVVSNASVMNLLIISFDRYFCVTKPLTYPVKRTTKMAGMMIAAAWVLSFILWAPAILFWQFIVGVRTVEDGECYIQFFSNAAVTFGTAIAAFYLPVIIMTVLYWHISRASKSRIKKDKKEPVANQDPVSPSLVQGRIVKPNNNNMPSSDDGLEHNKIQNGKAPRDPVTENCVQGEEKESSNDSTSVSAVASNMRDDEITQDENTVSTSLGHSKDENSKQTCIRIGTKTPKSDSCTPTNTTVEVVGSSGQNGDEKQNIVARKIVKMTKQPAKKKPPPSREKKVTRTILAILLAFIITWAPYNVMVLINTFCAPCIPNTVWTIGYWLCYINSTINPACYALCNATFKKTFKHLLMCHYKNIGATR
Description: (§1) ERK1/2 phosphorylation is a downstream consequence of both Gq/11 and Gi/o protein coupled receptor activation, making it highly suitable for the assessment of M1, M3 (Gq/11 coupled) and M2, M4 receptors (Gi/o coupled), rather than using different assay formats for different receptor subtypes. CHO cells stably expressing the human muscarinic M1, M2, M3 or M4 receptor were plated (25K/well) onto 96-well tissue culture plates in MEM-alpha+10% dialysed FBS. Once adhered, cells were serum-starved overnight. Agonist stimulation was performed by the addition of 5 μL agonist to the cells for 5 min (37° C.). Media was removed and 50 μL of lysis buffer added. After 15 min, a 4 μL sample was transferred to 384-well plate and 7 μL of detection mixture added.
(§2) Isomer assignment (Isomer 1, Isomer 2, etc.) is based on the retention time of the compound using the separation technique that was performed in the final purification step. By implication, this could be reversed phase HPLC, chiral HPLC or chiral SFC retention time, and this will vary from compound to compound.

[4] = biological target: T4, human muscarinic M3 receptor (Homo sapiens, UniProt P20309); test: Alphascreen Surefire phospho-ERK1/2 functional assay, M3; conditions: for % Emax cf. ACh, M3: CHO cells stably expressing human M3; for % Emax cf. ACh, M3 / Emax: Emax relative to ACh; for pEC50: pEC50 M3, CHO cells stably expressing human M3, phospho-ERK1/2; for Emax: CHO, read-out: % Emax cf. ACh, M3, CHO cells stably expressing human M3
T4 construct: expressed in transfected cells
T4 sequence (P20309 whole entry): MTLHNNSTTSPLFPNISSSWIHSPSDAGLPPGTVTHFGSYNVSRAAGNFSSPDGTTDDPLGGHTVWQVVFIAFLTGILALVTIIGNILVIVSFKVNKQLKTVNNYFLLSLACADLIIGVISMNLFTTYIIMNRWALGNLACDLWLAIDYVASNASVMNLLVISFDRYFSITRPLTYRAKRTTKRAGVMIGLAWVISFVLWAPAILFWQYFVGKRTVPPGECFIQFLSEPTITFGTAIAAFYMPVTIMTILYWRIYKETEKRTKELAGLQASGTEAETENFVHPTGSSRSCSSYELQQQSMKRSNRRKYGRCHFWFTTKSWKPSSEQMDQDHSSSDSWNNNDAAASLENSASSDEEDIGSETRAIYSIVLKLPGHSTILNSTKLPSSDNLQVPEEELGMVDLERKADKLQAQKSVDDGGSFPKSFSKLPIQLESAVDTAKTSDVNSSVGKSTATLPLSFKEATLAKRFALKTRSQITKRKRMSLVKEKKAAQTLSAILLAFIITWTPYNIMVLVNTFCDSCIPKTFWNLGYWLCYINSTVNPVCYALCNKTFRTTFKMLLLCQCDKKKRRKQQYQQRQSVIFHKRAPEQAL
Description: as §1, §2

SMILES: CCOC(=O)N1C2COCC1CC(N1CCC(n3cc(C)cn3)CC1)C2 (single isomer, unassigned) [Example 1-3 Isomer 1, Ethyl 7-[4-(4-methyl-1H-pyrazol-1-yl)piperidin-1-yl]-3-oxa-9-azabicyclo[3.3.1]nonane-9-carboxylate]
- % Emax cf. ACh, M1 ([1]; listed as 1-3 Isomer 1): 124%
- pEC50 [1]: 7.26
- Emax [2]: 99%
- pEC50 [2]: 8.14
- % Emax cf. ACh, M2 ([3]; Emax relative to ACh, listed as 1-3 Isomer 1): 112%
- pEC50 [3]: 6.55
- % Emax cf. ACh, M3 ([4]; listed as 1-3 Isomer 1): 40%
- pEC50 [4]: 5.60

SMILES: CCOC(=O)N1C2COCC1CC(N1CCC3(CC1)OC(=O)NC3CC)C2 (single isomer, unassigned) [Example 5-4 Isomer 1a, Ethyl 7-(4-ethyl-2-oxo-1-oxa-3,8-diazaspiro[4.5]dec-8-yl)-3-oxa-9-azabicyclo[3.3.1]nonane-9-carboxylate]
- % Emax cf. ACh, M1 ([1]; listed as 5-4 Isomer 1a): 76%
- pEC50 [1]: 5.83
- % Emax cf. ACh, M4 ([2]; listed as 5-4 Isomer 1a): 81%
- pEC50 [2]: 6.84
- % Emax cf. ACh, M2 ([3]; Emax relative to ACh, listed as 5-4 Isomer 1a): 3%
- pEC50 [3]: < 4.70
- Emax [4]: 2%
- pEC50 [4]: < 4.70

SMILES: CCOC(=O)N1C2COCC1CC(N1CCC3(CC1)C(=O)Nc1ccccc13)C2 (single isomer, unassigned) [Example 5-5 Isomer 1, Ethyl 7-(2-oxo-1,2-dihydro-1′H-spiro[indole-3,4′-piperidin]-1′-yl)-3-oxa-9-azabicyclo[3.3.1]nonane-9-carboxylate]
- % Emax cf. ACh, M1 ([1]; listed as 5-5 Isomer 1): 75%
- pEC50 [1]: 6.54
- Emax [2]: 99%
- pEC50 [2]: 7.67
- % Emax cf. ACh, M2 ([3]; Emax relative to ACh, listed as 5-5 Isomer 1): 24%
- pEC50 [3]: 6.91
- Emax [4]: 4%
- pEC50 [4]: < 4.70

SMILES: CCOC(=O)N1C2COCC1CC(N1CCC(N(CC(C)C)C(C)=O)CC1)C2 (single isomer, unassigned) [Example 6-1 Isomer 2, Ethyl 7-{4-[acetyl(2-methylpropyl)amino]piperidin-1-yl}-3-oxa-9-azabicyclo[3.3.1]nonane-9-carboxylate]
- % Emax cf. ACh, M1 [1]: 102%
- pEC50 [1]: 7.21
- % Emax cf. ACh, M4 ([2]; listed as 6-1 Isomer 2): 111%
- pEC50 [2]: 7.76
- % Emax cf. ACh, M2 ([3]; Emax relative to ACh, listed as 6-1 Isomer 2): 90%
- pEC50 [3]: 6.49
- % Emax cf. ACh, M3 ([4]; listed as 6-1 Isomer 2): 62%

SMILES: CCOC(=O)N1C2COCC1CC(N1CCC(N3CC(F)(F)C[C@@H]3CO)CC1)C2 (single isomer, unassigned) [Example 4-1 Isomer 1]
- % Emax cf. ACh, M1 ([1]; listed as 4-1 Isomer 1): 108%
- pEC50 [1]: 6.81
- % Emax cf. ACh, M4 ([2]; listed as 4-1 Isomer 1): 114%
- pEC50 [2]: 7.51
- % Emax cf. ACh, M2 ([3]; Emax relative to ACh, listed as 4-1 Isomer 1): 87%
- pEC50 [3]: 6.60
- % Emax cf. ACh, M3 ([4]; listed as 4-1 Isomer 1): 11%
- pEC50 [4]: < 4.70

SMILES: CCOC(=O)N1C2COCC1CC(N1CCC(c3ccc[nH]c3=O)CC1)C2 (single isomer, unassigned) [Example 2-3 Isomer 1, Ethyl 7-[4-(2-oxo-1,2-dihydropyridin-3-yl)piperidin-1-yl]-3-oxa-9-azabicyclo[3.3.1]nonane-9-carboxylate]
- % Emax cf. ACh, M1 ([1]; listed as 2-3 Isomer 1): 77%
- pEC50 [1]: 6.71
- % Emax cf. ACh, M4 ([2]; listed as 2-3 Isomer 1): 99%
- pEC50 [2]: 8.19
- % Emax cf. ACh, M2 ([3]; Emax relative to ACh, listed as 2-3 Isomer 1): 45%
- pEC50 [3]: 6.54
- Emax [4]: 9%
- pEC50 [4]: < 4.70

SMILES: CCOC(=O)N1C2COCC1CC(N1CCC(c3cccnc3OC)CC1)C2 (single isomer, unassigned) [Example 2-2 Isomer 1, Ethyl 7-[4-(2-methoxypyridin-3-yl)piperidin-1-yl]-3-oxa-9-azabicyclo[3.3.1]nonane-9-carboxylate]
- % Emax cf. ACh, M1 ([1]; listed as 2-2 Isomer 1): 63%
- pEC50 [1]: < 4.70
- % Emax cf. ACh, M4 ([2]; listed as 2-2 Isomer 1): 61%
- pEC50 [2]: 7.44
- Emax ([3]; CHO, read-out: % Emax cf. ACh, M2, CHO cells stably expressing human M2, Emax relative to ACh): 3%
- pEC50 [3]: < 4.70
- Emax [4]: 4%
- pEC50 [4]: < 4.70

SMILES: CCOC(=O)N1C2COCC1CC(N1CCC(c3ccc[nH]c3=O)CC1)C2 (single isomer, unassigned) [Example 2-3 Isomer 2, Ethyl 7-[4-(2-oxo-1,2-dihydropyridin-3-yl)piperidin-1-yl]-3-oxa-9-azabicyclo[3.3.1]nonane-9-carboxylate]
- % Emax cf. ACh, M1 ([1]; listed as 2-3 Isomer 2): 34%
- pEC50 [1]: 6.76
- % Emax cf. ACh, M4 ([2]; listed as 2-3 Isomer 2): 65%
- pEC50 [2]: 7.94
- % Emax cf. ACh, M2 ([3]; Emax relative to ACh, listed as 2-3 Isomer 2): 10%
- pEC50 [3]: < 4.70
- % Emax cf. ACh, M3 [4]: 5%

SMILES: CCOC(=O)N1C2COCC1CC(N1CCC(N(CC3(C)CC3)C(C)=O)CC1)C2 (single isomer, unassigned) [Example 6-3 Isomer 2]
- % Emax cf. ACh, M1 ([1]; listed as 6-3 Isomer 2): 90%
- pEC50 [1]: 6.71
- % Emax cf. ACh, M4 ([2]; listed as 6-3 Isomer 2): 44%
- pEC50 [2]: 6.41
- % Emax cf. ACh, M2 ([3]; Emax relative to ACh, listed as 6-3 Isomer 2): 11%
- pEC50 [3]: < 4.70
- % Emax cf. ACh, M3 ([4]; listed as 6-3 Isomer 2): 9%
